pIC50: −log10 of the molar value.
Target: T1, ROR1 pseudokinase domain (Homo sapiens, UniProt Q01973)
T1 sequence (Q01973 457-752): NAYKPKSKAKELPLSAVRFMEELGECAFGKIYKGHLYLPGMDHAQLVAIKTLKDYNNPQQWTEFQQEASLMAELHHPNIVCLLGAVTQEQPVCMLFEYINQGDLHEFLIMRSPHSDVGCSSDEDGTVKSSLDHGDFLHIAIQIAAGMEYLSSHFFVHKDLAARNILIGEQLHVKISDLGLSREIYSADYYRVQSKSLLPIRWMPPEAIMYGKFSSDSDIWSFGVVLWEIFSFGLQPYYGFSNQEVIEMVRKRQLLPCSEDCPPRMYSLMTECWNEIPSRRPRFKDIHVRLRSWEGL
Assay: DSF concentration series
Type: binding

Cc1ccc(C(=O)Nc2ccc(CN3CCN(C)CC3)c(C(F)(F)F)c2)cc1C#Cc1cnc2[nH]ncc2c1 [GZD824] gave a pIC50 of ~6.00.

Source: article PMC7543951 (Molecular cell, 2020)
